Among the test systems are HCC-2998 colon; 786-0 renal; SNB-19 CNS; KM12 colon; SF-268 CNS; HS 578T breast; COLO 205 colon; NCI-H226 lung; EKVX NSCLC; SNB-75 CNS; MDA-N; MALME-3M melanoma; OVCAR-5 ovarian; IGROV1 ovarian; HT29 colon; SF-295 CNS; HOP-62 NSCLC; HCT-116 colon; RXF 393 renal.
Assay in all cases: growth of human tumour cells (NCI), 48 h

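Method: 48-hour compound exposure of cells in 96-well plates, five concentrations, linear interpolation of endpoints. At the TGI there is no net growth.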

Take `COc1cc2c3c4c1OCc1c5c(cc(c1-4)CC3[N+](C)(C)CC2)OCO5` (stereo not given): the TGI with HCC-2998 colon is over 100 µM; in the experiment with 786-0 renal, over 63.5 µM; in the experiment on SNB-19 CNS, 54 µM; with KM12 colon, over 100 µM; in the experiment with SF-268 CNS it was 16.9 µM; in the experiment on HS 578T breast it was 31.7 µM. In addition, the TGI with COLO 205 colon, in the experiment with NCI-H226 lung, in the experiment with EKVX NSCLC, with SNB-75 CNS, in the experiment with MDA-N and with MALME-3M melanoma was over 100 µM in each case. Also, the TGI in the experiment on OVCAR-5 ovarian is over 100 µM; in the experiment on IGROV1 ovarian it was over 100 µM; in the experiment with HT29 colon it was over 100 µM; in the experiment on SF-295 CNS, over 43 µM; in the experiment with HOP-62 NSCLC, over 100 µM; with HCT-116 colon, over 100 µM. This compound came in with a TGI in the experiment with RXF 393 renal of over 100 µM.

For the compound `C[Si](C)(C)C#CCOC=C1CC1`, the TGI in the experiment with HCC-2998 colon, in the experiment on 786-0 renal, in the experiment with SNB-19 CNS, in the experiment on KM12 colon, in the experiment on SF-268 CNS and in the experiment on HS 578T breast was over 100 µM in each case. Moreover, the TGI with COLO 205 colon, with NCI-H226 lung, in the experiment on EKVX NSCLC, in the experiment with SNB-75 CNS, with MDA-N and in the experiment with MALME-3M melanoma was over 100 µM each time. Besides, the TGI with OVCAR-5 ovarian, in the experiment with IGROV1 ovarian, with HT29 colon, with SF-295 CNS, in the experiment on HOP-62 NSCLC and in the experiment on HCT-116 colon was over 100 µM in each case. In addition, the TGI in the experiment with RXF 393 renal was over 100 µM.

In the case of `CC(C)[Si](OC1=CCC[C@H]2NC(=O)[C@@H](Cc3ccc([N+](=O)[O-])cc3)[C@@]12C)(C(C)C)C(C)C`, the TGI came out at 4.22 µM with HCC-2998 colon; 17.8 µM in the experiment on 786-0 renal; 25.9 µM with SNB-19 CNS; 13.1 µM in the experiment with KM12 colon; 24.8 µM with SF-268 CNS; 25.1 µM in the experiment with HS 578T breast. Also, the TGI with COLO 205 colon was determined as 17 µM; in the experiment on EKVX NSCLC, 18.7 µM; in the experiment with SNB-75 CNS, 23.8 µM; in the experiment with MDA-N, 18 µM; in the experiment on MALME-3M melanoma it was 43.4 µM; in the experiment with OVCAR-5 ovarian, 21.2 µM. For the same compound, the TGI in the experiment with IGROV1 ovarian amounted to 28.8 µM; with HT29 colon it was 5.13 µM; in the experiment on SF-295 CNS, 16.9 µM; in the experiment with HOP-62 NSCLC, 17.3 µM; with HCT-116 colon, 12.7 µM; with RXF 393 renal, 4.72 µM.

For the compound `Cc1ccc2nnc(NS(=O)(=O)c3cc(C)c(Cl)cc3S)n2n1`, the TGI in the experiment on HCC-2998 colon, in the experiment with 786-0 renal, with SNB-19 CNS, in the experiment with KM12 colon, in the experiment on SF-268 CNS and with HS 578T breast was over 100 µM throughout. Further, the TGI with COLO 205 colon, in the experiment with NCI-H226 lung, with EKVX NSCLC, in the experiment on SNB-75 CNS, with MDA-N and with MALME-3M melanoma was over 100 µM throughout. In addition, the TGI in the experiment on OVCAR-5 ovarian, in the experiment with IGROV1 ovarian, in the experiment on HT29 colon, in the experiment on HOP-62 NSCLC, in the experiment on HCT-116 colon and with RXF 393 renal was over 100 µM in each case.

As to `Cc1ccc(C)c(C(=N)c2ccccc2Cc2ccccc2)c1`, the TGI in the experiment on HCC-2998 colon is 31.7 µM; with 786-0 renal, 32.2 µM; in the experiment with SNB-19 CNS it was over 100 µM; in the experiment on KM12 colon, 56.5 µM; in the experiment with SF-268 CNS it was 46.2 µM; with HS 578T breast, 20.7 µM. The TGI in the experiment with COLO 205 colon is 66.9 µM; with NCI-H226 lung, 33.9 µM; in the experiment with EKVX NSCLC it was 56.8 µM; in the experiment with MDA-N, 69.4 µM; in the experiment on MALME-3M melanoma, 28 µM; in the experiment on OVCAR-5 ovarian it was 98.3 µM. The TGI in the experiment on IGROV1 ovarian is over 100 µM; in the experiment on HT29 colon, 33.7 µM; in the experiment with SF-295 CNS, 56 µM; in the experiment with HOP-62 NSCLC it was 61.5 µM; with HCT-116 colon it was 41.5 µM; in the experiment on RXF 393 renal it was 34.9 µM.

In the case of `O=C(N1CCN(c2ccccc2)CC1)N(C(=O)C1(c2ccc(Cl)cc2)CCCC1)S(=O)(=O)c1ccccc1`, the TGI in the experiment on HCC-2998 colon is 58.5 µM; in the experiment with 786-0 renal, over 100 µM; in the experiment with SNB-19 CNS it was 72.2 µM; with KM12 colon, over 100 µM; with SF-268 CNS, over 100 µM; in the experiment with HS 578T breast, 88.2 µM. For the same compound, the TGI in the experiment on COLO 205 colon is 60.3 µM; in the experiment on NCI-H226 lung it was 99.3 µM; in the experiment on EKVX NSCLC, 58.2 µM; with SNB-75 CNS it was over 100 µM; with MDA-N it was 51.2 µM; in the experiment with MALME-3M melanoma, 72.3 µM. In addition, the TGI in the experiment on OVCAR-5 ovarian is 65.7 µM; with HT29 colon, 75.8 µM; in the experiment with SF-295 CNS, 70.6 µM; in the experiment on HOP-62 NSCLC it was 88.6 µM; with HCT-116 colon, 52.7 µM; in the experiment with RXF 393 renal, over 100 µM.

As to `CCCNC(=O)c1cc(NC(=O)c2cc(NC(=O)CCS(=O)(=O)OC)cn2C)cn1C`, the TGI with HCC-2998 colon is over 100 µM; with 786-0 renal, over 71.7 µM; with SNB-19 CNS, 4.82 µM; in the experiment on KM12 colon, over 61.5 µM; in the experiment on HS 578T breast, over 100 µM; with COLO 205 colon, 22.7 µM. Besides, the TGI is over 100 µM in the experiment on EKVX NSCLC; 48.4 µM with SNB-75 CNS; over 69.8 µM with MDA-N; 24.6 µM in the experiment on MALME-3M melanoma; over 100 µM in the experiment on OVCAR-5 ovarian; over 56.5 µM in the experiment with IGROV1 ovarian. For the same compound, the TGI in the experiment on HT29 colon was over 56.9 µM; in the experiment on SF-295 CNS it was over 100 µM; in the experiment with HOP-62 NSCLC it was over 53.1 µM; in the experiment with HCT-116 colon it was over 69.8 µM; in the experiment with RXF 393 renal it was 29 µM.

With `C[C@]12CC[C@H]3[C@@H](CCC4=CC(=O)CC[C@@]43C)[C@@H]1CC[C@@H]2OC(=O)c1cccc2c(=O)c3ccccc3[nH]c12`, the TGI with HCC-2998 colon is over 100 µM; in the experiment with 786-0 renal it was 38.6 µM; in the experiment on SNB-19 CNS, over 100 µM; with KM12 colon, over 100 µM; with SF-268 CNS, over 100 µM; in the experiment with HS 578T breast, over 100 µM. Also, the TGI in the experiment with COLO 205 colon, in the experiment on NCI-H226 lung, in the experiment on EKVX NSCLC, in the experiment with SNB-75 CNS, in the experiment with MDA-N and with MALME-3M melanoma was over 100 µM in each case. Moreover, the TGI in the experiment with OVCAR-5 ovarian, with IGROV1 ovarian, in the experiment with HT29 colon, in the experiment with SF-295 CNS, with HOP-62 NSCLC and in the experiment on RXF 393 renal was over 100 µM throughout.

The record behind these values is PubChem BioAssay (NCI).
